In ChEMBL document CHEMBL3875154 (Eur J Med Chem, 2016):

How the values were obtained:
[1] = Inhibition of human PDE4 catalytic domain using FAM-3',5'-cAMP as substrate after 1 hr by fluorescence polarization assay
[2] = species on record: Homo sapiens; experiment: Potency index, ratio of rolipram IC50 to test compound IC50 for human PDE4 catalytic domain
[3] = target: T1, Dual specificity calcium/calmodulin-dependent 3',5'-cyclic nucleotide phosphodiesterase 1A (Homo sapiens, UniProt P54750); experiment: Inhibition of human PDE1A using FAM-3',5'-cAMP as substrate after 1 hr by fluorescence polarization assay
T1 sequence (P54750 whole entry): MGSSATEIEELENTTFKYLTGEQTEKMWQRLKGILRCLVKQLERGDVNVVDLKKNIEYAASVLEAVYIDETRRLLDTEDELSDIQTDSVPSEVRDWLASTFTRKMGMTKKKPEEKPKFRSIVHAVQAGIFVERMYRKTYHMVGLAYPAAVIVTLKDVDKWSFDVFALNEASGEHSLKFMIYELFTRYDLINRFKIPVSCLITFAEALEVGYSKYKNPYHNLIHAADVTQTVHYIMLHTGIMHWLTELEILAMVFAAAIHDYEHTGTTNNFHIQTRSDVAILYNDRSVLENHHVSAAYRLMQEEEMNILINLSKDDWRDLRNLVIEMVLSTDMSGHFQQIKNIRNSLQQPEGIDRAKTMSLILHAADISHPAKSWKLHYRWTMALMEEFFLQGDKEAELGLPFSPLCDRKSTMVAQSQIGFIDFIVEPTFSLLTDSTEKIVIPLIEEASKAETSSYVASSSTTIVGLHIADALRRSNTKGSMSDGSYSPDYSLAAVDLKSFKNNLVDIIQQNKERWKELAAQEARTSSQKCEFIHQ

[4] = target: T2, 3',5'-cyclic-AMP phosphodiesterase 4B (Homo sapiens, UniProt Q07343); experiment: Inhibition of full length human PDE4B1 using FAM-3',5'-cAMP as substrate after 1 hr by fluorescence polarization assay
[5] = target: T3, 3',5'-cyclic-AMP phosphodiesterase 4D (Homo sapiens, UniProt Q08499); experiment: Inhibition of full length human PDE4D7 using FAM-3',5'-cAMP as substrate after 1 hr by fluorescence polarization assay
[6] = target: T4, 3',5'-cyclic-AMP phosphodiesterase 4A (Homo sapiens, UniProt P27815); experiment: Inhibition of full length human PDE4A4 at 10^4 nM using FAM-3',5'-cAMP as substrate after 1 hr by fluorescence polarization assay relative to control
T4 sequence (P27815 whole entry): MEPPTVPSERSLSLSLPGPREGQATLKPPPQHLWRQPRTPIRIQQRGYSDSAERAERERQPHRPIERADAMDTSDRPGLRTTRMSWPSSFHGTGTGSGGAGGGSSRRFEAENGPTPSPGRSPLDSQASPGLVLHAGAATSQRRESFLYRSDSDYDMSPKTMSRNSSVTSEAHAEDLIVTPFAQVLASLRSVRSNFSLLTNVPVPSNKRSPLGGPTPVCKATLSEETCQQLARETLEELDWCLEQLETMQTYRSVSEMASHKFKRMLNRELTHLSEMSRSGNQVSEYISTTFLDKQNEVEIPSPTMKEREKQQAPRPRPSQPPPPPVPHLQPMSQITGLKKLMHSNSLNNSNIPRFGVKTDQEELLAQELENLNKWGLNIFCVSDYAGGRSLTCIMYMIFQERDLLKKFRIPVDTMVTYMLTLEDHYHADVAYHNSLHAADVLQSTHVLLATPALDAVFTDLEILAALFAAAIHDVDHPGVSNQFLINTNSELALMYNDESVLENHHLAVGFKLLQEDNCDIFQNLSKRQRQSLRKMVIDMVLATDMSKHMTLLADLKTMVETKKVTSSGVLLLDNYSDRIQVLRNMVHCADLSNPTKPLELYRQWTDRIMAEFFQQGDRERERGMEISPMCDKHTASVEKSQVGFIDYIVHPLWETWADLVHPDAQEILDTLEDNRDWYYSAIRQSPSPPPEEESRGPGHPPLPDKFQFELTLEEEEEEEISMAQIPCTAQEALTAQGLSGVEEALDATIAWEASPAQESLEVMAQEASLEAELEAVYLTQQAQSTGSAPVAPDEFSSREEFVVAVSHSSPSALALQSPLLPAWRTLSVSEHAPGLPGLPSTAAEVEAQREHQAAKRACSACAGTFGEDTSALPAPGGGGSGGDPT

[7] = target: T5, High affinity cAMP-specific and IBMX-insensitive 3',5'-cyclic phosphodiesterase 8A (Homo sapiens, UniProt O60658); experiment: Inhibition of human PDE8A1 using FAM-3',5'-cAMP as substrate after 1 hr by fluorescence polarization assay
[8] = target: T1, Dual specificity calcium/calmodulin-dependent 3',5'-cyclic nucleotide phosphodiesterase 1A; experiment: Inhibition of human PDE1A at 10^4 nM using FAM-3',5'-cAMP as substrate after 1 hr by fluorescence polarization assay relative to control
[9] = target: T5, High affinity cAMP-specific and IBMX-insensitive 3',5'-cyclic phosphodiesterase 8A; experiment: Inhibition of human PDE8A1 at 10^4 nM using FAM-3',5'-cAMP as substrate after 1 hr by fluorescence polarization assay relative to control
[10] = target: T6, High affinity cGMP-specific 3',5'-cyclic phosphodiesterase 9A (Homo sapiens, UniProt O76083); experiment: Inhibition of human PDE9A2 at 10^4 nM using FAM-3',5'-cAMP as substrate after 1 hr by fluorescence polarization assay relative to control
T6 sequence (O76083 whole entry): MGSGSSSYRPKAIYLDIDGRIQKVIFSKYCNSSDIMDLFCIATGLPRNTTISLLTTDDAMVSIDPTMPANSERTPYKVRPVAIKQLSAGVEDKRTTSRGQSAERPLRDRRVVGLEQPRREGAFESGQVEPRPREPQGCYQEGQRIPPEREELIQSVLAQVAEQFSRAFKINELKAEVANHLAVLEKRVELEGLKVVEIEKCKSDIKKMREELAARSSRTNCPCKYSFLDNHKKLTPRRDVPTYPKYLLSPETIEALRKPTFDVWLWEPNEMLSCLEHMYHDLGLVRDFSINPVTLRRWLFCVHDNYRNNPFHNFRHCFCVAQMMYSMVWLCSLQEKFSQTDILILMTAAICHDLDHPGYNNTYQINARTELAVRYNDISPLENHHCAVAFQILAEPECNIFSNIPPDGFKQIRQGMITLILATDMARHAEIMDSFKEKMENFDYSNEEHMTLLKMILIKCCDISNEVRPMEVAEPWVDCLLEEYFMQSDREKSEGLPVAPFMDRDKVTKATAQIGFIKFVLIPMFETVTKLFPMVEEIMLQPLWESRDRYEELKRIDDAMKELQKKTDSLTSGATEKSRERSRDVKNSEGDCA

[11] = target: T7, cGMP-inhibited 3',5'-cyclic phosphodiesterase 3B (Homo sapiens, UniProt Q13370); experiment: Inhibition of human PDE3B using FAM-3',5'-cAMP as substrate after 1 hr by fluorescence polarization assay
[12] = target: T2, 3',5'-cyclic-AMP phosphodiesterase 4B; experiment: Inhibition of full length human PDE4B1 at 10^4 nM using FAM-3',5'-cAMP as substrate after 1 hr by fluorescence polarization assay relative to control
[13] = target: T8, Cone cGMP-specific 3',5'-cyclic phosphodiesterase subunit alpha' (Homo sapiens, UniProt P51160); experiment: Inhibition of human PDE6C using FAM-3',5'-cAMP as substrate after 1 hr by fluorescence polarization assay
T8 sequence (P51160 whole entry): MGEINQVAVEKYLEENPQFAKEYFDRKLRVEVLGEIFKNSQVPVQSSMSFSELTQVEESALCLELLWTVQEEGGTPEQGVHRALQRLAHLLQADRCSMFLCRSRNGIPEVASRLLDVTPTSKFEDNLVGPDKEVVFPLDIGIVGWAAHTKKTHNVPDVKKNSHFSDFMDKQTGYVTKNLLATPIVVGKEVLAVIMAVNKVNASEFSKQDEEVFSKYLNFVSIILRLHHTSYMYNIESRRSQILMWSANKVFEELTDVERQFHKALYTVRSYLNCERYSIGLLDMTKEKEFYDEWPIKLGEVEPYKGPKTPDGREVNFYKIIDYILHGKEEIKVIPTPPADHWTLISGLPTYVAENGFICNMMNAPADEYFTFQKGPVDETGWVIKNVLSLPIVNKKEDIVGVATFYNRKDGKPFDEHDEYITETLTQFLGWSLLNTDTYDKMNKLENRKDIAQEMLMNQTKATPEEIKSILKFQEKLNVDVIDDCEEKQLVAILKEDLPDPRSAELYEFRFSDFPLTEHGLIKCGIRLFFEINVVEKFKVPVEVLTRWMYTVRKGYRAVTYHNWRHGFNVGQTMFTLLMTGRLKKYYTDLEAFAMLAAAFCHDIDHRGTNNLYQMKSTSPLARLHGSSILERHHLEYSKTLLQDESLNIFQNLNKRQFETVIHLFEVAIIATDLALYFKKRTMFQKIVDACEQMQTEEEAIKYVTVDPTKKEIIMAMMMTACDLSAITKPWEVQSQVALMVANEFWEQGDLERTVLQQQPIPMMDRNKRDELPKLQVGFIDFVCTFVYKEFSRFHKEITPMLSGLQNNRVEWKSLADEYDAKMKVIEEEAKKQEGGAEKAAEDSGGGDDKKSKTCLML

[14] = target: T9, Dual 3',5'-cyclic-AMP and -GMP phosphodiesterase 11A (Homo sapiens, UniProt Q9HCR9); experiment: Inhibition of human PDE11A using FAM-3',5'-cAMP as substrate after 1 hr by fluorescence polarization assay
Target sequence in this assay (Q9HCR9 whole entry): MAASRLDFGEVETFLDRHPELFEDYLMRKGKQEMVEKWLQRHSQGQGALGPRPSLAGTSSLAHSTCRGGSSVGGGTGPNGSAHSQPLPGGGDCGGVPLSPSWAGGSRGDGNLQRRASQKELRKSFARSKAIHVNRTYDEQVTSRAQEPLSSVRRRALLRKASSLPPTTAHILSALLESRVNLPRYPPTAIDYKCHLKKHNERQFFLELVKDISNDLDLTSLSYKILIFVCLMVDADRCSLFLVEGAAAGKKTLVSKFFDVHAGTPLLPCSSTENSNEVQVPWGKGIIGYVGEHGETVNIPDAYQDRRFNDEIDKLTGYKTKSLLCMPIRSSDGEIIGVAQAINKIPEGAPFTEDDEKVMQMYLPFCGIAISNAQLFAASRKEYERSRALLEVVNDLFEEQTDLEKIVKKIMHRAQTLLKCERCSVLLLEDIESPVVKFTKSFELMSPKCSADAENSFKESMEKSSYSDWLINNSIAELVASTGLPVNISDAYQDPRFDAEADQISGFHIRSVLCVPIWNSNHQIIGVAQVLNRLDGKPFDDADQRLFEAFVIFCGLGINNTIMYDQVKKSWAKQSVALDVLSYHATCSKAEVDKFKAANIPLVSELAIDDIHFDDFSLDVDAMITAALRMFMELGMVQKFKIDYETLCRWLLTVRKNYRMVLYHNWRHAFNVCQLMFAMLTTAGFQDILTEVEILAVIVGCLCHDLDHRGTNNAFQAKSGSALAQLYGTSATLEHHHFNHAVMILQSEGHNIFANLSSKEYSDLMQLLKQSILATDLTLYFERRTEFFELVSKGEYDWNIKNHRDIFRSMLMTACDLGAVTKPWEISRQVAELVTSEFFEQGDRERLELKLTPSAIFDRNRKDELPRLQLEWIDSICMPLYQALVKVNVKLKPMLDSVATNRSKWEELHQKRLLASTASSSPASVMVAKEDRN

[15] = target: T10, cGMP-dependent 3',5'-cyclic phosphodiesterase (Homo sapiens, UniProt O00408); experiment: Inhibition of human PDE2A at 10^4 nM using FAM-3',5'-cAMP as substrate after 1 hr by fluorescence polarization assay relative to control
[16] = tested on: BV-2; experiment: Antineuroinflammatory activity in mouse BV2 cells assessed as inhibition of LPS-induced TNFalpha production; type: functional, cell-based
[17] = target: T11, High affinity 3',5'-cyclic-AMP phosphodiesterase 7A (Homo sapiens, UniProt Q13946); experiment: Inhibition of human PDE7A at 10^4 nM using FAM-3',5'-cAMP as substrate after 1 hr by fluorescence polarization assay relative to control
T11 sequence (Q13946 whole entry): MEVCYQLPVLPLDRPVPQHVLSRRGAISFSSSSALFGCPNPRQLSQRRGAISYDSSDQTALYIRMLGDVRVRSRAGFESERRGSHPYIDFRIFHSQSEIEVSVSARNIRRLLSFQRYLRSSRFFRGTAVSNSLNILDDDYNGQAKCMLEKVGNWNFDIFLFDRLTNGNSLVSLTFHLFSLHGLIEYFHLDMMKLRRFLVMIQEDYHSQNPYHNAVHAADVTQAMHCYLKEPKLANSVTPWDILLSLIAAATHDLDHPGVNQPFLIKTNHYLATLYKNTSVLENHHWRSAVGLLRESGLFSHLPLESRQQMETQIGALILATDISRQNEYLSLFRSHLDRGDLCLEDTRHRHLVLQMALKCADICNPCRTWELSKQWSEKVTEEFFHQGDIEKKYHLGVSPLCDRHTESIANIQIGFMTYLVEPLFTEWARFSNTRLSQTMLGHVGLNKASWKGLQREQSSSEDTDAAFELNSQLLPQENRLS

[18] = target: T12, 3',5'-cyclic-AMP phosphodiesterase 4C (Homo sapiens, UniProt Q08493); experiment: Inhibition of full length human PDE4C1 using FAM-3',5'-cAMP as substrate after 1 hr by fluorescence polarization assay
T12 sequence (Q08493 whole entry): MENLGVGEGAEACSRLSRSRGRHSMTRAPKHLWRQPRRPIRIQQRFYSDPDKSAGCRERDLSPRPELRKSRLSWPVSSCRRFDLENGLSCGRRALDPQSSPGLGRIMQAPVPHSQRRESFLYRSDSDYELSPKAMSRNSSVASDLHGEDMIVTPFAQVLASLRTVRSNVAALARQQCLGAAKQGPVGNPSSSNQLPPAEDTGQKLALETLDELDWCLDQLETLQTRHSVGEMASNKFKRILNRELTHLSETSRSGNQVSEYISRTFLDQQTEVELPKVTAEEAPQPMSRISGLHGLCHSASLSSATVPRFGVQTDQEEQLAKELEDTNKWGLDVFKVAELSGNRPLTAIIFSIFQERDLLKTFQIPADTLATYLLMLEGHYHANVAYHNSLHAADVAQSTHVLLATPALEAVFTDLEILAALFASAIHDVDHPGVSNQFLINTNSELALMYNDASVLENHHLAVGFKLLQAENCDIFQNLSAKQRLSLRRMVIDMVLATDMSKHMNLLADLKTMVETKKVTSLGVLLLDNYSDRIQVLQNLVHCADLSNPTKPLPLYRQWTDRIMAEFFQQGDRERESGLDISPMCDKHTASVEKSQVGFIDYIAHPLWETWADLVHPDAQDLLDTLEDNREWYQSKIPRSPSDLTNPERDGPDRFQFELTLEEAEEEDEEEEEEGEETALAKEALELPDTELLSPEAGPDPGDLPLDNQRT

[19] = target: T3, 3',5'-cyclic-AMP phosphodiesterase 4D; experiment: Inhibition of full length human PDE4D7 at 10^4 nM using FAM-3',5'-cAMP as substrate after 1 hr by fluorescence polarization assay relative to control
[20] = target: T10, cGMP-dependent 3',5'-cyclic phosphodiesterase; experiment: Inhibition of human PDE2A using FAM-3',5'-cAMP as substrate after 1 hr by fluorescence polarization assay
[21] = target: T7, cGMP-inhibited 3',5'-cyclic phosphodiesterase 3B; experiment: Inhibition of human PDE3B at 10^4 nM using FAM-3',5'-cAMP as substrate after 1 hr by fluorescence polarization assay relative to control
[22] = target: T13, cAMP and cAMP-inhibited cGMP 3',5'-cyclic phosphodiesterase 10A (Homo sapiens, UniProt Q9Y233); experiment: Inhibition of human PDE10A2 using FAM-3',5'-cAMP as substrate after 1 hr by fluorescence polarization assay
[23] = target: T12, 3',5'-cyclic-AMP phosphodiesterase 4C; experiment: Inhibition of full length human PDE4C1 at 10^4 nM using FAM-3',5'-cAMP as substrate after 1 hr by fluorescence polarization assay relative to control
[24] = target: T14, cGMP-specific 3',5'-cyclic phosphodiesterase (Homo sapiens, UniProt O76074); experiment: Inhibition of human PDE5A at 10^4 nM using FAM-3',5'-cAMP as substrate after 1 hr by fluorescence polarization assay relative to control
[25] = target: T11, High affinity 3',5'-cyclic-AMP phosphodiesterase 7A; experiment: Inhibition of human PDE7A using FAM-3',5'-cAMP as substrate after 1 hr by fluorescence polarization assay
[26] = target: T9, Dual 3',5'-cyclic-AMP and -GMP phosphodiesterase 11A; experiment: Inhibition of human PDE11A at 10^4 nM using FAM-3',5'-cAMP as substrate after 1 hr by fluorescence polarization assay relative to control
Target sequence in this assay (Q9HCR9 whole entry, looked up): as the sequence (Q9HCR9 whole entry) above

[27] = target: T4, 3',5'-cyclic-AMP phosphodiesterase 4A; experiment: Inhibition of full length human PDE4A4 using FAM-3',5'-cAMP as substrate after 1 hr by fluorescence polarization assay
[28] = target: T6, High affinity cGMP-specific 3',5'-cyclic phosphodiesterase 9A; experiment: Inhibition of human PDE9A2 using FAM-3',5'-cAMP as substrate after 1 hr by fluorescence polarization assay
[29] = target: T14, cGMP-specific 3',5'-cyclic phosphodiesterase; experiment: Inhibition of human PDE5A using FAM-3',5'-cAMP as substrate after 1 hr by fluorescence polarization assay
[30] = target: T8, Cone cGMP-specific 3',5'-cyclic phosphodiesterase subunit alpha'; experiment: Inhibition of human PDE6C at 10^4 nM using FAM-3',5'-cAMP as substrate after 1 hr by fluorescence polarization assay relative to control
[31] = target: T13, cAMP and cAMP-inhibited cGMP 3',5'-cyclic phosphodiesterase 10A; experiment: Inhibition of human PDE10A2 at 10^4 nM using FAM-3',5'-cAMP as substrate after 1 hr by fluorescence polarization assay relative to control

| Compound | IC50 [1] [nM] | Ratio IC50 [2] | IC50 [3] [nM] | IC50 [4] [nM] | IC50 [5] [nM] | inhibition [6] [%] | IC50 [7] [nM] | inhibition [8] [%] | inhibition [9] [%] | inhibition [10] [%] | IC50 [11] [nM] | inhibition [12] [%] | IC50 [13] [nM] | inhibition [15] [%] | inhibition [17] [%] | IC50 [18] [nM] | inhibition [19] [%] | IC50 [20] [nM] | inhibition [21] [%] | IC50 [22] [nM] | other results |
| --- | --- | --- | --- | --- | --- | --- | --- | --- | --- | --- | --- | --- | --- | --- | --- | --- | --- | --- | --- | --- | --- |
| CN(C(=O)c1ccc(OC(F)F)c(OC2CCCC2)c1)c1ccccn1 | 1400 | – | – | – | – | – | – | – | – | – | – | – | – | – | – | – | – | – | – | – | – |
| O=C(Nc1ccccc1)c1ccc(OC(F)F)c(OCC2CC2)c1 | 220 | < 18 | – | – | – | – | – | – | – | – | – | – | – | – | – | – | – | – | – | – | – |
| COc1ccc(C(=O)Nc2cccnc2)cc1OCC1CC1 | 360 | < 18 | – | – | – | – | – | – | – | – | – | – | – | – | – | – | – | – | – | – | – |
| O=C(Nc1ccccc1Cl)c1ccc(OC(F)F)c(OCC2CC2)c1 | 90 | < 18 | > 100000 | 166 | 39 | 100 | > 100000 | 6 | 3 | 3 | > 100000 | 98 | > 100000 | 8 | 7 | 501 | 99 | > 100000 | 13 | > 100000 | IC50 [14]: > 100000 nM; inhibition [16]: Dose-dependent effect; inhibition [23]: 96%; inhibition [24]: 12%; IC50 [25]: > 100000 nM; inhibition [26]: 5%; IC50 [27]: 126 nM; IC50 [28]: > 100000 nM; IC50 [29]: > 100000 nM; inhibition [30]: 2%; inhibition [31]: 3% |
| COc1ccc(C(=O)N(C)c2ccccn2)cc1OCC1CC1 | 25100 | – | – | – | – | – | – | – | – | – | – | – | – | – | – | – | – | – | – | – | – |
| O=C(Nc1cccnc1)c1ccc(OC(F)F)c(OCC2CC2)c1 | 69 | < 18 | > 100000 | 34 | 71 | 98 | > 100000 | 20 | 22 | 8 | > 100000 | 99 | > 100000 | 23 | 7 | 269 | 100 | > 100000 | 6 | > 100000 | inhibition [23]: 98%; inhibition [24]: 23%; IC50 [25]: > 100000 nM; inhibition [26]: 85%; IC50 [27]: 76 nM; IC50 [28]: > 100000 nM; IC50 [29]: > 100000 nM; inhibition [30]: 28%; inhibition [31]: 14% |
| COc1ccc(C(=O)N(C)c2ccccn2)cc1OC1CCCC1 | 9700 | – | – | – | – | – | – | – | – | – | – | – | – | – | – | – | – | – | – | – | – |
| O=C(Nc1ccccc1Cl)c1ccc(OC(F)F)c(OC2CCCC2)c1 | 30 | < 18 | > 100000 | 144 | 22 | 98 | > 100000 | 3 | 10 | 6 | > 100000 | 100 | > 100000 | 28 | 3 | 400 | 99 | > 100000 | 6 | > 100000 | IC50 [14]: > 100000 nM; inhibition [23]: 97%; inhibition [24]: 7%; IC50 [25]: > 100000 nM; inhibition [26]: 7%; IC50 [27]: 95 nM; IC50 [28]: > 100000 nM; IC50 [29]: > 100000 nM; inhibition [30]: 2%; inhibition [31]: 6% |
| O=C(Nc1cccnc1)c1ccc(OC(F)F)c(OC2CCCC2)c1 | 140 | < 18 | > 100000 | 39 | 68 | 98 | > 100000 | 0 | 9 | 4 | > 100000 | 99 | > 100000 | 26 | 3 | 294 | 99 | > 100000 | 6 | > 100000 | inhibition [23]: 98%; inhibition [24]: 12%; IC50 [25]: > 100000 nM; inhibition [26]: 76%; IC50 [27]: 117 nM; IC50 [28]: > 100000 nM; IC50 [29]: > 100000 nM; inhibition [30]: 16%; inhibition [31]: 9% |
| COc1ccc(C2CNC(=O)C2)cc1OC1CCCC1 (configuration not stated) [ROLIPRAM] | 550 | – | – | – | – | – | – | – | – | – | – | – | – | – | – | – | – | – | – | – | – |
| COc1ccc(C(=O)Nc2cccnc2)cc1OC1CCCC1 | 310 | < 18 | – | – | – | – | – | – | – | – | – | – | – | – | – | – | – | – | – | – | – |
| O=C(Nc1ccccc1)c1ccc(OC(F)F)c(OC2CCCC2)c1 | 240 | < 18 | – | – | – | – | – | – | – | – | – | – | – | – | – | – | – | – | – | – | – |
| CN(C(=O)c1ccc(OC(F)F)c(OCC2CC2)c1)c1ccccn1 | 2500 | – | – | – | – | – | – | – | – | – | – | – | – | – | – | – | – | – | – | – | – |
